# Experimental data taken from ChEMBL document CHEMBL1201862, “PubChem BioAssay data set” (2004).
#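 All cell lines were grown in 96-well plates and treated with compound for 48 hours. The concentration for 50% growth inhibition is given as GI50.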 Active and inactive are the calls of the source. Rule as the data show it: active = GI50 up to about 1.1 µM and inactive = higher.
# Tests used:
# Assay in all cases: NCI anticancer screen, dose series, 48 h
# 786-0 = tested on: 786-0
# CCRF-CEM = tested on: CCRF-CEM
# HCT-116 = tested on: HCT-116
# HOP-62 = tested on: HOP-62
# HOP-92 = tested on: HOP-92
# HT-29 = tested on: HT-29
# IGROV-1 = tested on: IGROV-1
# M14 = tested on: M14
# Malme-3M = tested on: Malme-3M
# NCI-H226 = tested on: NCI-H226
# NCI-H522 = tested on: NCI-H522
# OVCAR-8 = tested on: OVCAR-8
# RPMI-8226 = tested on: RPMI-8226
# SF-268 = tested on: SF-268
# SW-620 = tested on: SW-620
# SF-295 = tested on: SF-295
# SK-MEL-2 = tested on: SK-MEL-2
# UACC-62 = tested on: UACC-62
# SK-OV-3 = tested on: SK-OV-3
Structure (SMILES),GI50 (786-0),GI50 (CCRF-CEM),GI50 (HCT-116),GI50 (HOP-62),GI50 (HOP-92),GI50 (HT-29),GI50 (IGROV-1),GI50 (M14),GI50 (Malme-3M),GI50 (NCI-H226),GI50 (NCI-H522),GI50 (OVCAR-8),GI50 (RPMI-8226),GI50 (SF-268),GI50 (SW-620),GI50 (SF-295),GI50 (SK-MEL-2),GI50 (UACC-62),GI50 (SK-OV-3)
COC(=O)c1cccc(C)c1C1CN=NC12Cc1c(ccc(C)c1C)C2=O (centres undefined),46.2 µM (inactive),26.1 µM (inactive),22.5 µM (inactive),51.6 µM (inactive),38.4 µM (inactive),25.8 µM (inactive),76.4 µM (inactive),45.3 µM (inactive),22.9 µM (inactive),81.8 µM (inactive),15.8 µM (inactive),30.7 µM (inactive),17.3 µM (inactive),61.8 µM (inactive),29.5 µM (inactive),–,–,–,–
CC/C(C)=C1\CCC(CN(C)C)C1=O (centres undefined),15.8 µM (inactive),15.9 µM (inactive),17.8 µM (inactive),42.2 µM (inactive),23.2 µM (inactive),23.1 µM (inactive),20 µM (inactive),19.5 µM (inactive),22 µM (inactive),> 100 µM (inactive),–,27.6 µM (inactive),2.82 µM (inactive),25.4 µM (inactive),22.9 µM (inactive),> 100 µM (inactive),17.6 µM (inactive),33.3 µM (inactive),–
COC(=O)C(CCS(=O)(=O)CC(=O)C(=O)Nc1cccc(C(C)=O)c1)C(=O)OC,> 100 µM (inactive),> 43.1 µM (inactive),> 56.6 µM (inactive),> 100 µM (inactive),> 100 µM (inactive),> 100 µM (inactive),> 100 µM (inactive),> 100 µM (inactive),> 100 µM (inactive),> 100 µM (inactive),> 92.3 µM (inactive),> 100 µM (inactive),> 47.2 µM (inactive),0.586 µM (active),> 100 µM (inactive),> 100 µM (inactive),> 100 µM (inactive),> 100 µM (inactive),> 100 µM (inactive)
CC(C)N(C(=O)C12C3C4C5C3C1(C(=O)N(C(C)C)C(C)C)C5C42)C(C)C (centres undefined),> 100 µM (inactive),> 47.1 µM (inactive),> 43.6 µM (inactive),> 100 µM (inactive),> 100 µM (inactive),> 100 µM (inactive),> 100 µM (inactive),> 100 µM (inactive),> 100 µM (inactive),> 100 µM (inactive),> 100 µM (inactive),> 60.5 µM (inactive),> 44.7 µM (inactive),> 100 µM (inactive),> 52.4 µM (inactive),> 100 µM (inactive),> 100 µM (inactive),> 100 µM (inactive),> 100 µM (inactive)
COC1=CC(=O)[C@H]2[C@H](C)C(c3ccccc3)[C@@]2(C)C1=O (some centres undefined),> 100 µM (inactive),> 100 µM (inactive),–,> 100 µM (inactive),> 100 µM (inactive),> 100 µM (inactive),> 100 µM (inactive),> 100 µM (inactive),> 100 µM (inactive),–,> 100 µM (inactive),> 100 µM (inactive),> 100 µM (inactive),> 100 µM (inactive),> 100 µM (inactive),> 100 µM (inactive),> 100 µM (inactive),> 100 µM (inactive),> 100 µM (inactive)
C=CCN1COc2c(cc3c4c(cccc24)C(=O)O3)C1,20.5 µM (inactive),19.6 µM (inactive),20.1 µM (inactive),> 100 µM (inactive),16.2 µM (inactive),23.8 µM (inactive),> 100 µM (inactive),22.9 µM (inactive),> 10 µM (inactive),> 100 µM (inactive),14.1 µM (inactive),> 100 µM (inactive),33.6 µM (inactive),48.6 µM (inactive),25.4 µM (inactive),35.1 µM (inactive),> 100 µM (inactive),19.2 µM (inactive),> 100 µM (inactive)
CCc1cccc(C(C)C)c1NC(=O)C(=O)C(C(=O)C(=O)OC)c1nc2ccccc2nc1O (centres undefined),> 100 µM (inactive),> 100 µM (inactive),> 100 µM (inactive),–,> 100 µM (inactive),> 100 µM (inactive),> 100 µM (inactive),> 100 µM (inactive),> 100 µM (inactive),> 100 µM (inactive),> 100 µM (inactive),> 100 µM (inactive),> 100 µM (inactive),> 100 µM (inactive),> 100 µM (inactive),> 100 µM (inactive),> 100 µM (inactive),> 100 µM (inactive),> 100 µM (inactive)
CC(=O)/C=C1\CC(=O)Nc2ccccc2N1,> 100 µM (inactive),2.79 µM (inactive),> 100 µM (inactive),–,> 100 µM (inactive),> 100 µM (inactive),> 100 µM (inactive),> 100 µM (inactive),> 100 µM (inactive),> 100 µM (inactive),–,> 100 µM (inactive),> 100 µM (inactive),> 100 µM (inactive),> 100 µM (inactive),> 100 µM (inactive),> 100 µM (inactive),> 100 µM (inactive),> 100 µM (inactive)
CCCc1cc(OC(=O)c2c(O)cc(OC)cc2CCC)cc(O)c1C(=O)O,36 µM (inactive),32.8 µM (inactive),17.4 µM (inactive),16.6 µM (inactive),13.5 µM (inactive),33 µM (inactive),47.9 µM (inactive),28.4 µM (inactive),17.5 µM (inactive),–,16 µM (inactive),37.5 µM (inactive),24.2 µM (inactive),–,37.9 µM (inactive),–,20.5 µM (inactive),35.7 µM (inactive),22.4 µM (inactive)
N#C/C(=C\c1cccc(Cl)c1Cl)c1ccccc1,37.6 µM (inactive),39.3 µM (inactive),33 µM (inactive),37 µM (inactive),44.5 µM (inactive),> 89.5 µM (inactive),33.7 µM (inactive),74.5 µM (inactive),> 48.2 µM (inactive),56.2 µM (inactive),52.8 µM (inactive),53.3 µM (inactive),> 61.9 µM (inactive),58.1 µM (inactive),> 53 µM (inactive),38.4 µM (inactive),47.1 µM (inactive),58.3 µM (inactive),45.7 µM (inactive)
Cc1ccc(NC(=O)CCC/C(CC(=O)c2ccc(Br)cc2)=N/NC(=O)CC#N)cc1,> 100 µM (inactive),> 100 µM (inactive),> 100 µM (inactive),> 100 µM (inactive),> 100 µM (inactive),> 100 µM (inactive),> 100 µM (inactive),> 100 µM (inactive),> 100 µM (inactive),> 100 µM (inactive),–,> 100 µM (inactive),> 100 µM (inactive),> 100 µM (inactive),> 100 µM (inactive),> 100 µM (inactive),> 100 µM (inactive),> 100 µM (inactive),–
CSc1nc(Cl)c(Br)c(Sc2nc(N)nc3nc[nH]c23)n1,3.27 µM (inactive),2.77 µM (inactive),2.84 µM (inactive),2 µM (inactive),7.28 µM (inactive),9.86 µM (inactive),13.5 µM (inactive),4.56 µM (inactive),13.4 µM (inactive),10.5 µM (inactive),1.63 µM (inactive),11 µM (inactive),2.25 µM (inactive),3.44 µM (inactive),7.43 µM (inactive),4.72 µM (inactive),4.78 µM (inactive),3.52 µM (inactive),–
COc1cc2c(cc1OC)C1C=NC(C(=O)O)(C2)c2ccccc21 (centres undefined),> 100 µM (inactive),52.5 µM (inactive),> 100 µM (inactive),> 100 µM (inactive),> 100 µM (inactive),> 100 µM (inactive),> 100 µM (inactive),> 100 µM (inactive),> 100 µM (inactive),> 100 µM (inactive),> 100 µM (inactive),> 100 µM (inactive),> 100 µM (inactive),> 100 µM (inactive),> 100 µM (inactive),> 100 µM (inactive),–,> 100 µM (inactive),> 100 µM (inactive)
CN1C(=O)C(=CN)C(=O)N(C)C1=O,> 100 µM (inactive),> 100 µM (inactive),–,–,> 100 µM (inactive),> 100 µM (inactive),–,> 100 µM (inactive),> 100 µM (inactive),> 100 µM (inactive),> 100 µM (inactive),> 100 µM (inactive),> 100 µM (inactive),> 100 µM (inactive),> 100 µM (inactive),> 100 µM (inactive),> 100 µM (inactive),–,–
CC1CC2C(=O)NC(=O)C2c2[nH]c3ccccc3c21 (centres undefined),> 100 µM (inactive),> 100 µM (inactive),> 100 µM (inactive),74 µM (inactive),34.4 µM (inactive),> 100 µM (inactive),> 100 µM (inactive),> 100 µM (inactive),> 100 µM (inactive),67.1 µM (inactive),51.4 µM (inactive),> 100 µM (inactive),> 100 µM (inactive),> 100 µM (inactive),> 100 µM (inactive),> 100 µM (inactive),> 100 µM (inactive),–,> 100 µM (inactive)
COc1ccc2cc3[n+](cc2c1OC)CCc1cc(O)c(O)cc1-3,> 100 µM (inactive),> 100 µM (inactive),> 100 µM (inactive),> 100 µM (inactive),> 100 µM (inactive),> 100 µM (inactive),> 100 µM (inactive),> 100 µM (inactive),> 100 µM (inactive),> 100 µM (inactive),> 100 µM (inactive),> 100 µM (inactive),> 100 µM (inactive),> 100 µM (inactive),> 100 µM (inactive),> 100 µM (inactive),–,> 100 µM (inactive),> 100 µM (inactive)
